Results as given in patent US20080261913A1, “Compounds and pharmaceutical compositions for the treatment of liver disorders” (Idenix Pharmaceuticals, Inc., priority 2006, published 2008).
Several values for one entry are separate records, joined by “and”; a condition that tells them apart may be missing. Identical values can stand only once.

Legend:
[1] = test system: Primary hepatocyte cultures (human); assay: Determination of triphosphate levels in cells, human primary hepatocytes; format: in vitro ADME; conditions: general statement on the table of b531, 10 μM drug
Experimental: Freshly isolated cells from animal and human liver were obtained in suspension on ice. Following receipt, cells were pelleted by centrifugation at 500 rpm (rat) or 700 rpm (monkey and human) and resuspended at 0.8 million cells per mL of platting medium (HPM). Multi-well collagen-coated plates (12-well) were then seeded by addition of 1 mL of cell suspention (0.8 million cells/mL). The plates were gently shaken to evenly distribute the cells and placed in an incubator at 37° C. for approximately 4 to 6 hours to allow cells to attach. Once cells have attached, the platting medium was removed and replaced with hepatocyte culture medium (HCM). Cells were left overnight in an incubator at 37° C. to acclimatize to culture and the medium.
Hepatocyte incubations were conducted in a final volume of 1.0 mL HCM/well (0.8 million cells/mL). HCM from overnight incubation of cells was removed and replaced with fresh HCM, pre-warmed to 37° C., containing 10 μM test article from a stock solution in DMSO (final DMSO concentration was 0.1%). […]
Cellular extracts were prepared by transferring 0.9 mL of extract into 2 mL microfuge tubes followed by centrifugation for 5 min at 14,000 rpm. Approximately 100 μL of the supernatant was transferred to HPLC vials and triphosphate levels determined by LCMS/MS as described below. […]

[2] = test system: Primary hepatocytes (Rat); assay: In vitro phosphorylation in hepatocytes (LddA-TP formation), rat; format: in vitro ADME
Experimental: (§1) Measurements of the concentration of 2′-3′-dideoxyadenosine-5′-triphosphate (ddATP) (the triphosphate nucleotide of 2′-3′-dideoxyadenosine (ddA) are performed by liquid chromatography tandem mass spectrometry (LC/MS/MS), e.g., of methanolic extracts of hepatocytes.
(§2) The concentration of ddATP is measured by comparison to a standard curve. Working stock solutions of TP-ddA are prepared from a […] stock solution in de-ionized water of ddATP (tetrasodium salt of >91% purity) purchased from Sigma Chemical Co as follows:
(§3) HPLC is conducted on Phenomenex Luna Amino 3 μm 100 A, 30×2 mm column, with a mobile phase: A: 70% 10 mM NH4OAc 30% ACN pH 6.0; and B: 70% 1 mM NH4OAc 30% ACN pH 10.5 as follows:
(§4) Primary hepatocytes (Rat, Cynomolgus Monkey or human) were seeded at 0.8×10^6 in a collagen-coated 12-well plate and allowed to attach 4-6 hours after which time the seeding medium was replaced with serum-free culture medium and cells allowed to acclimatize to the new medium overnight. On the next day, cells were exposed for 1, 4, 8 and 24 hours to test article A550 (NM204) at 10 and 50 μM prepared in fresh culture medium from stock solution in DMSO (final DMSO concentration was 0.1%). At each time point, an aliquot (500 μl) was collected and immediately added to 500 μl of acetonitrile and stored at −20° C. until analysis. The remaining exposure medium was removed and the cell monolayer (stuck to dish) washed 2 times with ice-cold PBS. Any remaining PBS was carefully removed by aspiration and cells were harvested by scraping in 1 mL 70% ice-cold methanol. Cell samples were placed overnight at −20° C. and cellular debris removed by centrifugation on the next day. The supernatants were removed and filtered prior to analysis by LC/MS. A standard curve was prepared by using untreated cells processed similarly except that prior to harvesting in 70% methanol, 10 μl of LddATP standard solutions prepared in methanol were added to the washed monolayers. These control samples were then processed and analyzed as described for test samples.

[3] = In vivo studies in rat: A550 and LddATP measured in livers after IV or oral dose; conditions: male rat liver
Experimental: Distribution of A550 (NM-204) (the compound of Example 1 (Hydroxy-tBuSATE N-benzylphosphoroamidate derivative of L-ddA) in the rat liver was evaluated following a single intravenous (I.V.) or oral administration of A550 (NM-204) at a dose of 20 (oral) or 10 (I.V.) mg/Kg body weight. The dose solutions were prepared on the same day prior to dose administration.
At the specified time point (1 and 3 hours for IV animals or 1, 3 and 8 hours for oral animals), each animal was euthanized by CO2 gas followed by exsanguination via the abdominal vein. Livers were collected immediately after sacrifice, flash frozen in liquid nitrogen, placed on dry ice, and later stored at −70° C., before being analyzed.
Control rat liver samples were taken from whole frozen livers (Bioreclamation, Inc. Hicksville, N.Y.) with the aid of a tissue coring utensil (Harris Unicore, 8.0 mm, VWR). Each ˜0.1 g sample was placed in individual 2 mL poly vials with 0.940 mL of 80% MeOH/20% DIH2O and homogenates were prepared using a mechanical tissue disruptor (Tissue Master, Omni-International, Inc, Marietta Ga.). The vials received a 10 μl aliquot of a working stock solution and a 50 μl aliquot of the ISTD before vortexing for ˜30 sec. The mixtures were stored overnight at −20° C. and the next day were removed for 10 min of centrifugation in a benchtop centrifuge. Each supernatant was transferred to individual centrifugation filtration units (0.45 μm) and the resulting filtrates were transferred to HPLC vials for the LC/MS/MS analysis. The final concentrations of ddATP in the calibration standards was 1000, 500, 250, 125, 50, and 0 pmol/ml. Each calibration standard was directly injected in a 50 μL volume onto the ion-exchange column for analysis. Standard curve analysis of calibration standards from control liver extracts was conducted.
Analysis of ddATP was done by an ion-exchange chromatography method with on-line positive ionization ESI-MS/MS detection in multiple reaction monitoring (MRM) detection mode. […] This is equivalent to a range of […] per gram liver by the sample preparation employed. The HPLC MS MS conditions described in Example 5 were utilized.

[4] = test system: Primary hepatocytes (human); assay: In vitro phosphorylation in hepatocytes (LddA-TP formation), human; format: in vitro ADME
Experimental: as §1, §2, §3, §4

[5] = test system: Primary hepatocytes (Cynomolgus Monkey); assay: In vitro phosphorylation in hepatocytes (LddA-TP formation), monkey; format: in vitro ADME
Experimental: as §1, §2, §3, §4

[6] = IV dose 10 mg/kg, 1 hr, individual animals, 10 mg/kg
[7] = IV dose 10 mg/kg, 3 hrs, individual animals, 10 mg/kg
[8] = Oral dose 20 mg/kg, 1 hr, individual animals, 20 mg/kg
[9] = Oral dose 20 mg/kg, 3 hrs, Mean
[10] = Oral dose 20 mg/kg, 3 hrs, individual animals, 20 mg/kg
[11] = Oral dose 20 mg/kg, 8 hrs, Mean
[12] = Oral dose 20 mg/kg, 8 hrs, individual animals, 20 mg/kg

CC(C)(CO)C(=O)SCCOP(=O)(NCc1ccccc1)OC[C@H]1O[C@@H](n2ccc(N)nc2=O)[C@](C)(O)[C@@H]1O (mixture of isomers) [Example B102, Hydroxy-tBuSATE N-Benzylphosphoroamidate Derivative of 2′-C-methylcytidine]
levels of intracellular triphosphate as compared to those for NM107 [1]: much higher

Hydroxy-tBuSATE N-benzylphosphoroamidate derivative of L-ddA [Example A550]
LddA TP Levels ([2]; 10 μM, 1 hour): 159.5 pmol/million cells
LddA TP Levels ([2]; 10 μM, 4 hours): 388.0 pmol/million cells
LddA TP Levels ([2]; 10 μM, 8 hours): 468.5 pmol/million cells
LddA TP Levels ([2]; 10 μM, 24 hours): 422.0 pmol/million cells
LddA TP Levels ([2]; 50 μM, 1 hour): 393.0 pmol/million cells
LddA TP Levels ([2]; 50 μM, 4 hours): 1212.0 pmol/million cells
LddA TP Levels ([2]; 50 μM, 8 hours): 1590.0 pmol/million cells
LddA TP Levels ([2]; 50 μM, 24 hours): 1505.0 pmol/million cells
Concentration Compound (Ex 1) ([3]; IV dose 10 mg/kg, 1 hr, Mean): 80.0 pmol/g liver
Concentration. ddA-TP ([3]; IV dose 10 mg/kg, 1 hr, Mean): 1770 pmol/g liver
Concentration. ddA-TP ([3]; IV dose 10 mg/kg, 1 hr, Mean, via hepatocellularity number): 15.5 pmol/10^6 cells
Concentration Compound (Ex 1) [3, 6]: 85.1 pmol/g liver and 65.8 pmol/g liver and 89.1 pmol/g liver
Concentration. ddA-TP [3, 6]: 1355 pmol/g liver and 2025 pmol/g liver and 1930 pmol/g liver
Concentration. ddA-TP ([3]; IV dose 10 mg/kg, 1 hr, individual animals, via hepatocellularity number, 10 mg/kg): 11.9 pmol/10^6 cells and 17.8 pmol/10^6 cells and 16.9 pmol/10^6 cells
Concentration Compound (Ex 1) ([3]; IV dose 10 mg/kg, 3 hrs, Mean): 27.9 pmol/g liver
Concentration. ddA-TP ([3]; IV dose 10 mg/kg, 3 hrs, Mean): 2092 pmol/g liver
Concentration. ddA-TP ([3]; IV dose 10 mg/kg, 3 hrs, Mean, via hepatocellularity number): 18.3 pmol/10^6 cells
Concentration Compound (Ex 1) [3, 7]: 28.3 pmol/g liver and 26.0 pmol/g liver and 29.3 pmol/g liver
Concentration. ddA-TP [3, 7]: 1345 pmol/g liver and 1940 pmol/g liver and 2990 pmol/g liver
Concentration. ddA-TP ([3]; IV dose 10 mg/kg, 3 hrs, individual animals, via hepatocellularity number, 10 mg/kg): 11.8 pmol/10^6 cells and 17.0 pmol/10^6 cells and 26.2 pmol/10^6 cells
Concentration Compound (Ex 1) ([3]; Oral dose 20 mg/kg, 1 hr, Mean): 251 pmol/g liver
Concentration. ddA-TP ([3]; Oral dose 20 mg/kg, 1 hr, Mean): 395 pmol/g liver
Concentration. ddA-TP ([3]; Oral dose 20 mg/kg, 1 hr, Mean, via hepatocellularity number): 3.5 pmol/10^6 cells
Concentration Compound (Ex 1) [3, 8]: 411 pmol/g liver and 272 pmol/g liver and 70.2 pmol/g liver
Concentration. ddA-TP [3, 8]: 210 pmol/g liver and 575 pmol/g liver and 400 pmol/g liver
Concentration. ddA-TP ([3]; Oral dose 20 mg/kg, 1 hr, individual animals, via hepatocellularity number, 20 mg/kg): 1.8 pmol/10^6 cells and 5.0 pmol/10^6 cells and 3.5 pmol/10^6 cells
Concentration Compound (Ex 1) [3, 9]: 204 pmol/g liver
Concentration. ddA-TP [3, 9]: 312 pmol/g liver
Concentration. ddA-TP ([3]; Oral dose 20 mg/kg, 3 hrs, Mean, via hepatocellularity number): 2.7 pmol/10^6 cells
Concentration Compound (Ex 1) [3, 10]: 360 pmol/g liver and 92.1 pmol/g liver and 161 pmol/g liver
Concentration. ddA-TP [3, 10]: 200 pmol/g liver and 330 pmol/g liver and 405 pmol/g liver
Concentration. ddA-TP ([3]; Oral dose 20 mg/kg, 3 hrs, individual animals, via hepatocellularity number, 20 mg/kg): 1.8 pmol/10^6 cells and 2.9 pmol/10^6 cells and 3.6 pmol/10^6 cells
Concentration Compound (Ex 1) [3, 11]: 20.1 pmol/g liver
Concentration. ddA-TP [3, 11]: 382 pmol/g liver
Concentration. ddA-TP ([3]; Oral dose 20 mg/kg, 8 hrs, Mean, via hepatocellularity number): 3.3 pmol/10^6 cells
Concentration Compound (Ex 1) [3, 12]: 16.4 pmol/g liver and 28 pmol/g liver and 16.2 pmol/g liver
Concentration. ddA-TP [3, 12]: 280 pmol/g liver and 805 pmol/g liver and 275 pmol/g liver
Concentration. ddA-TP ([3]; Oral dose 20 mg/kg, 8 hrs, individual animals, via hepatocellularity number, 20 mg/kg): 2.5 pmol/10^6 cells and 5.2 pmol/10^6 cells and 2.4 pmol/10^6 cells
LddA TP Levels ([4]; 10 μM, 1 hour): 161.5 pmol/million cells
LddA TP Levels ([4]; 10 μM, 4 hours): 312.5 pmol/million cells
LddA TP Levels ([4]; 10 μM, 8 hours): 352.5 pmol/million cells
LddA TP Levels ([4]; 10 μM, 24 hours): 366.0 pmol/million cells
LddA TP Levels ([4]; 50 μM, 1 hour): 682.5 pmol/million cells
LddA TP Levels ([4]; 50 μM, 4 hours): 1480.0 pmol/million cells
LddA TP Levels ([4]; 50 μM, 8 hours): 1930.0 pmol/million cells
LddA TP Levels ([4]; 50 μM, 24 hours): 2062.5 pmol/million cells
LddA TP Levels ([5]; 10 μM, 1 hour): 287.5 pmol/million cells
LddA TP Levels ([5]; 10 μM, 4 hours): 978.0 pmol/million cells
LddA TP Levels ([5]; 10 μM, 8 hours): 1230.0 pmol/million cells
LddA TP Levels ([5]; 10 μM, 24 hours): 344.0 pmol/million cells
LddA TP Levels ([5]; 50 μM, 1 hour): 2085.0 pmol/million cells
LddA TP Levels ([5]; 50 μM, 4 hours): 5690.0 pmol/million cells
LddA TP Levels ([5]; 50 μM, 8 hours): 6030.0 pmol/million cells
LddA TP Levels ([5]; 50 μM, 24 hours): 3030.0 pmol/million cells
